Patent US9339668B2, “Extract of aerial parts of oats harvested before ear emergence” (priority 2008, dated 2016)

System: Prostaglandin PG6KF1α production in stimulated human keratinocyte
Assay: Production of prostaglandin PG6KF1α induced at the keratinocyte by calcium ionophore A23187
Type: cell-based
Settings: 10 μg/ml
Text: Principle: The keratinocyte, the most represented cell at the epidermis, plays a significant role in initiating and modulating inflammatory reactions of the skin. With the model it is possible to determine in vitro the capabilities of various molecules of modulating the production of mediators stemming from the metabolism of arachidonic acid. Prostaglandin PG6KF1α is a stable metabolite of prostacyclin PGI2, a major metabolite produced by the stimulated human keratinocyte. An acetone extract of aerial parts of oats harvested before ear emergence and its fractions were evaluated on the production of this prostaglandin induced at the keratinocyte by the calcium ionophore A23187 (stimulating the cascade of arachidonic acid).

## O=c1cc(-c2ccc(O)c(O)c2)oc2cc(O)c([C@@H]3O[C@H](CO)[C@@H](O)[C@H](O)[C@H]3OC3OC[C@@H](O)[C@@H](O)[C@@H]3O)c(O)c12 (stereo partly shown) [isoorientin-2″-O-arabinosyl]
  inhibition of PG6KF1α production: 55%
